Reference: PubChem BioAssay (NCI)
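In this assay, cells in 96-well plates receive the compound at five concentrations for 48 hours. Endpoints are linearly interpolated between the surrounding concentrations. At the GI50, growth is halved. TGI: concentration producing complete growth inhibition.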

Assays:
Experiment in all cases: DTP human tumour cell line panel, 48 h
786-0 renal = tested on: 786-0 renal
A549 NSCLC = tested on: A549 NSCLC
CCRF-CEM leukemia = tested on: CCRF-CEM leukemia
HCT-116 colon = tested on: HCT-116 colon
IGROV1 ovarian = tested on: IGROV1 ovarian
K-562 leukemia = tested on: K-562 leukemia
RXF 393 renal = tested on: RXF 393 renal
SK-MEL-28 melanoma = tested on: SK-MEL-28 melanoma
UACC-62 melanoma = tested on: UACC-62 melanoma
HS 578T breast = tested on: HS 578T breast

## CCC12C=CCN3CCC4(C(=C(C(=O)OC)[C@@H]1O)Nc1ccccc14)C32 (stereo partly specified)
786-0 renal
  TGI: 3.07 µM
A549 NSCLC
  TGI: 5.15 µM
CCRF-CEM leukemia
  TGI: 6 µM
HCT-116 colon
  TGI: 2.95 µM
IGROV1 ovarian
  TGI: 3.9 µM
K-562 leukemia
  TGI: > 26.9 µM
RXF 393 renal
  TGI: 2.65 µM
SK-MEL-28 melanoma
  TGI: 4.13 µM
UACC-62 melanoma
  TGI: 4.76 µM

## Cc1cccc2c(=O)cc(-c3ccccc3)[nH]c12
786-0 renal
  TGI: > 100 µM
A549 NSCLC
  TGI: > 100 µM
CCRF-CEM leukemia
  TGI: > 100 µM
HCT-116 colon
  TGI: > 100 µM
IGROV1 ovarian
  TGI: > 100 µM
K-562 leukemia
  TGI: > 100 µM
RXF 393 renal
  TGI: 38.2 µM
SK-MEL-28 melanoma
  TGI: > 100 µM
UACC-62 melanoma
  TGI: > 100 µM

## COc1cc(/C=C2\S/C(=N/Nc3nc(-c4ccc(Br)cc4)cs3)NC2=O)cc(OC)c1OC
786-0 renal
  TGI: 26.5 µM
A549 NSCLC
  TGI: 56.7 µM
CCRF-CEM leukemia
  TGI: 10.3 µM
HCT-116 colon
  TGI: 17.2 µM
HS 578T breast
  TGI: 89.5 µM
IGROV1 ovarian
  TGI: 37 µM
RXF 393 renal
  TGI: 19.4 µM
SK-MEL-28 melanoma
  TGI: 99.1 µM
UACC-62 melanoma
  TGI: 25.4 µM

## CC1=C(C)[C@@]2(C)O[C@@]2(C)O[C@@]2(C)O[C@@]12C
A549 NSCLC
  TGI: > 100 µM
HCT-116 colon
  TGI: > 100 µM
HS 578T breast
  TGI: > 100 µM
K-562 leukemia
  TGI: > 100 µM
SK-MEL-28 melanoma
  TGI: > 100 µM
UACC-62 melanoma
  TGI: > 100 µM

## CC[C@@]1(C[C@H]2C[C@@]3(C(=O)OC)c4[nH]c5ccccc5c4CCN3C2=O)COC2(CCCCC2)O1
786-0 renal
  TGI: > 100 µM
A549 NSCLC
  TGI: > 100 µM
HCT-116 colon
  TGI: > 100 µM
HS 578T breast
  TGI: 87 µM
IGROV1 ovarian
  TGI: > 100 µM
K-562 leukemia
  TGI: > 100 µM
RXF 393 renal
  TGI: > 100 µM
UACC-62 melanoma
  TGI: > 100 µM

## CCOc1cc2c(cc1O)/C(=N\OC)C[C@@H]1[C@@H]2CC[C@]2(C)[C@@H](O)CC[C@@H]12
A549 NSCLC
  TGI: > 100 µM
CCRF-CEM leukemia
  TGI: > 100 µM
HCT-116 colon
  TGI: > 38.7 µM
HS 578T breast
  TGI: 0.776 µM
IGROV1 ovarian
  TGI: > 30.1 µM
K-562 leukemia
  TGI: > 100 µM
SK-MEL-28 melanoma
  TGI: > 60.2 µM
UACC-62 melanoma
  TGI: 24 µM

## CC(=O)Nc1ccc(-c2nnc(SCC(=O)Nc3ccc([N+](=O)[O-])cc3)o2)cc1
786-0 renal
  TGI: 23.7 µM
A549 NSCLC
  TGI: 37 µM
CCRF-CEM leukemia
  TGI: > 100 µM
HCT-116 colon
  TGI: 25 µM
IGROV1 ovarian
  TGI: 23.4 µM
K-562 leukemia
  TGI: > 100 µM
RXF 393 renal
  TGI: 27.9 µM
SK-MEL-28 melanoma
  TGI: 27.7 µM
UACC-62 melanoma
  TGI: 21.5 µM

## COc1ccc(CNc2nc(NCc3ccc(OC)c(OC)c3)nc(NC3CCCCC3)n2)cc1
786-0 renal
  TGI: > 100 µM
A549 NSCLC
  TGI: > 100 µM
CCRF-CEM leukemia
  TGI: > 100 µM
HCT-116 colon
  TGI: > 100 µM
IGROV1 ovarian
  TGI: > 100 µM
K-562 leukemia
  TGI: > 100 µM
RXF 393 renal
  TGI: 6.22 µM
SK-MEL-28 melanoma
  TGI: > 100 µM
UACC-62 melanoma
  TGI: > 100 µM

## CCCCCCCCCCCOc1ccc(C(=O)C(=O)c2ccc(OCCCCCCCCCCC)c(OCCCCCCCCCCC)c2)cc1OCCCCCCCCCCC
786-0 renal
  TGI: > 100 µM
A549 NSCLC
  TGI: > 100 µM
CCRF-CEM leukemia
  TGI: > 100 µM
HCT-116 colon
  TGI: > 100 µM
IGROV1 ovarian
  TGI: > 100 µM
K-562 leukemia
  TGI: > 100 µM
SK-MEL-28 melanoma
  TGI: > 100 µM
UACC-62 melanoma
  TGI: > 100 µM

## COC(=O)[C@H](Cc1c[nH]c2ccccc12)NP(=O)(O)OCC1C=CC(n2cc(C)c(=O)[nH]c2=O)O1 (stereo partly specified)
786-0 renal
  TGI: > 100 µM
CCRF-CEM leukemia
  TGI: > 100 µM
HCT-116 colon
  TGI: > 100 µM
HS 578T breast
  TGI: > 100 µM
IGROV1 ovarian
  TGI: > 100 µM
K-562 leukemia
  TGI: > 100 µM
SK-MEL-28 melanoma
  TGI: > 100 µM
UACC-62 melanoma
  TGI: > 100 µM

## Cc1cc(O)c2c(=O)c3ccccc3[nH]c2c1
786-0 renal
  TGI: > 100 µM
A549 NSCLC
  TGI: > 100 µM
CCRF-CEM leukemia
  TGI: > 100 µM
HCT-116 colon
  TGI: 65.2 µM
HS 578T breast
  TGI: 84.6 µM
IGROV1 ovarian
  TGI: 94.2 µM
RXF 393 renal
  TGI: 82.8 µM
SK-MEL-28 melanoma
  TGI: > 100 µM

## C(/c1ccco1)=c1/nc(-c2ccccc2)n2c1nc1ccccc12
786-0 renal
  TGI: > 100 µM
A549 NSCLC
  TGI: > 100 µM
CCRF-CEM leukemia
  TGI: 46.8 µM
HCT-116 colon
  TGI: 71.1 µM
HS 578T breast
  TGI: > 100 µM
IGROV1 ovarian
  TGI: > 100 µM
K-562 leukemia
  TGI: 68.3 µM
RXF 393 renal
  TGI: > 100 µM
UACC-62 melanoma
  TGI: > 100 µM

## Cc1cn(C2CC(N(O)C(N)=O)C(CO)O2)c(=O)[nH]c1=O (stereo unspecified)
786-0 renal
  TGI: > 100 µM
A549 NSCLC
  TGI: > 100 µM
HCT-116 colon
  TGI: > 100 µM
K-562 leukemia
  TGI: > 100 µM
RXF 393 renal
  TGI: > 100 µM
SK-MEL-28 melanoma
  TGI: > 100 µM
UACC-62 melanoma
  TGI: > 100 µM

## COc1cc([C@@H]2OCC3C(c4ccc5c(c4)OCO5)OCC32)cc(OC)c1OC (stereo partly specified)
786-0 renal
  TGI: > 100 µM
A549 NSCLC
  TGI: > 100 µM
CCRF-CEM leukemia
  TGI: > 100 µM
HCT-116 colon
  TGI: > 100 µM
IGROV1 ovarian
  TGI: > 100 µM
K-562 leukemia
  TGI: > 100 µM
RXF 393 renal
  TGI: > 100 µM
SK-MEL-28 melanoma
  TGI: > 100 µM

## COc1cc([C@@H]2c3cc4c(cc3[C@@H](Nc3ccc([N+](=O)[O-])cc3C(=O)c3ccccc3)[C@H]3COC(=O)[C@H]23)OCO4)cc(OC)c1OC
786-0 renal
  TGI: > 100 µM
A549 NSCLC
  TGI: > 100 µM
CCRF-CEM leukemia
  TGI: > 100 µM
HCT-116 colon
  TGI: > 100 µM
HS 578T breast
  TGI: > 100 µM
IGROV1 ovarian
  TGI: > 100 µM
K-562 leukemia
  TGI: > 100 µM
RXF 393 renal
  TGI: > 100 µM
UACC-62 melanoma
  TGI: > 100 µM

## c1ccc(N=C2SC3=Nc4cccc5cccc(c45)N3C2=Nc2ccccc2)cc1
CCRF-CEM leukemia
  TGI: > 100 µM
HS 578T breast
  TGI: > 100 µM
IGROV1 ovarian
  TGI: > 100 µM
K-562 leukemia
  TGI: > 100 µM
RXF 393 renal
  TGI: > 100 µM
SK-MEL-28 melanoma
  TGI: > 100 µM
UACC-62 melanoma
  TGI: > 100 µM

## CCC[C@@H](O)C[C@@H]1CCC[C@H](C[C@@H](O)CC)N1C
786-0 renal
  TGI: > 100 µM
A549 NSCLC
  TGI: > 100 µM
CCRF-CEM leukemia
  TGI: > 100 µM
HCT-116 colon
  TGI: > 100 µM
IGROV1 ovarian
  TGI: > 100 µM
K-562 leukemia
  TGI: > 100 µM
SK-MEL-28 melanoma
  TGI: > 100 µM
UACC-62 melanoma
  TGI: > 100 µM

## CCCNC1=C2CC(C)CC(OC)[C@@H](O)[C@H](C)/C=C(\C)C(OC(N)=O)C(OC)/C=C\C=C(/C)C(=O)NC(=CC1=O)C2=O (stereo partly specified)
786-0 renal
  TGI: > 100 µM
A549 NSCLC
  GI50: 0.514 µM
  TGI: 27.9 µM
CCRF-CEM leukemia
  GI50: 0.309 µM
  TGI: 3.13 µM
HCT-116 colon
  GI50: 0.0589 µM
  TGI: > 100 µM
HS 578T breast
  GI50: 0.625 µM
  TGI: 36.8 µM
IGROV1 ovarian
  TGI: 41.6 µM
K-562 leukemia
  TGI: > 100 µM
RXF 393 renal
  GI50: 13.8 µM
  TGI: 48.7 µM
UACC-62 melanoma
  GI50: 0.253 µM
  TGI: 41.9 µM

## CC(=O)O[C@H]1C(=O)[C@]2(C)[C@@H](OC(=O)OCCC(O)CO)C[C@H]3OC[C@@]3(OC(C)=O)[C@H]2[C@H](OC(=O)c2ccccc2)[C@]2(O)C[C@H](OC(=O)[C@H](O)[C@@H](NC(=O)c3ccccc3)c3ccccc3)C(C)=C1C2(C)C (stereo partly specified)
786-0 renal
  TGI: 6.05 µM
A549 NSCLC
  TGI: > 100 µM
CCRF-CEM leukemia
  TGI: 0.0462 µM
HCT-116 colon
  TGI: 5.65 µM
HS 578T breast
  TGI: 0.479 µM
IGROV1 ovarian
  TGI: 19.8 µM
K-562 leukemia
  TGI: > 100 µM
RXF 393 renal
  TGI: 17.9 µM
UACC-62 melanoma
  TGI: 24.8 µM

## CNS(=O)(=O)NNS(=O)(=O)c1ccc2ccccc2c1
786-0 renal
  TGI: > 100 µM
A549 NSCLC
  TGI: > 100 µM
CCRF-CEM leukemia
  TGI: > 100 µM
HCT-116 colon
  TGI: > 100 µM
IGROV1 ovarian
  TGI: > 100 µM
K-562 leukemia
  TGI: > 100 µM
SK-MEL-28 melanoma
  TGI: > 100 µM
UACC-62 melanoma
  TGI: > 100 µM

## CC1C=C(CCCCCCCCCCCC[C@@H](O)[C@@H]2CC[C@@H]([C@@H]3CC[C@@H](C(O)CCCCCCCCCCCCC4=C[C@H](C)OC4=O)O3)O2)C(=O)O1 (stereo partly specified)
786-0 renal
  TGI: > 100 µM
A549 NSCLC
  TGI: > 100 µM
CCRF-CEM leukemia
  TGI: > 100 µM
HCT-116 colon
  TGI: > 100 µM
IGROV1 ovarian
  TGI: > 100 µM
K-562 leukemia
  TGI: > 100 µM
RXF 393 renal
  TGI: > 100 µM
SK-MEL-28 melanoma
  TGI: > 100 µM
UACC-62 melanoma
  TGI: > 100 µM

## N#CN=C(N(Cc1ccccc1)Cc1ccccc1)N(Cc1ccccc1)Cc1ccccc1
A549 NSCLC
  TGI: > 100 µM
CCRF-CEM leukemia
  TGI: > 100 µM
HCT-116 colon
  TGI: > 100 µM
IGROV1 ovarian
  TGI: > 100 µM
K-562 leukemia
  TGI: > 100 µM
UACC-62 melanoma
  TGI: > 100 µM
